Results published in patent US7122666B2, “Heteroaryl-substituted pyrrole derivatives, their preparation and their therapeutic uses” (Sankyo Company, Limited, priority 1999, dated 2006).

Tested on: adjuvant-induced arthritis
Experiment: Activity in preventing the development of adjuvant-induced arthritis in vivo (Test Examples 4 and 4′)
Conditions: Table 10′; Lewis rat, oral once a day from day 0 to day 20, inhibition of swelling of injected foot on day 21
Experimental: The test was performed according to the method described by Winder et al. (Arthritis Rheum., 12, 472–482, 1969). Heat-killed dried Mycobacterium butyricum (Difco Laboratories, Lot 679123) was ground on an agate mortar, and was then suspended in dry-sterilised liquid paraffin (first grade, Wako Pure Chemical Industries, Ltd.) to make a 2 ml suspension. The resulting suspension was then sonicated and used as an adjuvant. Arthritis was induced by the intradermal injection of the adjuvant (100 μg of heat killed dried bacterium/0.05 ml of paraffin/paw) into the heel of the right hind paw of a Lewis rat (male, age 8 weeks, Japan Charles River). […] The volumes of the swollen feet (adjuvant-injected right hind foot volume—non-injected left hind foot volume) were calculated. The percent inhibition of swelling of the injected foot of the treated animals as compared to that of the control animals on day 21 was calculated as follows. […] ID50 values were calculated using this curve. […] […]

CC1C[C@H]2C=C(c3c[nH]c(-c4ccc(F)cc4)c3-c3ccncc3)CCN2C1 (stereo partly drawn) [Example 16′, 2-(4-Fluorophenyl)-4-[(8aS)-2-methyl-1,2,3,5,6,8a-hexahydroindolizin-7-yl]-3-(pyridin-4-yl)1H-pyrrole]
Activity in Preventing the Development of Adjuvant-Induced Arthritis in vivo IC50: 1.2 mg/kg
